From PMC5847526, “Inhibition of neuronal FLT3 receptor tyrosine kinase alleviates peripheral neuropathic pain in mice” (Nature Communications, 2018)

Experiments:
[1] = molecular target: Interleukin-1 receptor-associated kinase 4 (IRAK4) (Homo sapiens, UniProt Q9NWZ3); assay: kinase selectivity panel, inhibition of staurosporine binding at a single concentration ([…])
CDK2 = CDK2 (Homo sapiens, UniProt P24941); assay: biochemical; set-up: ExpresS Diversity kinase profile (Eurofins Cerep P10), per cent inhibition; details: read-out: Inhibition of reference binding (Table 4)
FGFR2 kinase = FGFR2 kinase (Homo sapiens, UniProt P21802); assay: biochemical; set-up: ExpresS Diversity kinase profile (Eurofins Cerep P10), per cent inhibition; details: read-out: Inhibition of reference binding (Table 4)
FGFR3 kinase = FGFR3 kinase (Homo sapiens, UniProt P22607); assay: biochemical; set-up: ExpresS Diversity kinase profile (Eurofins Cerep P10), per cent inhibition; details: read-out: Inhibition of reference binding (Table 4)
JNK1 = molecular target: T1, JNK1 (Homo sapiens, UniProt P45983); assay: biochemical; set-up: ExpresS Diversity kinase profile (Eurofins Cerep P10), per cent inhibition; details: read-out: Inhibition of reference binding (Table 4)
T1 construct: gene MAPK8

KDR = KDR (Homo sapiens, UniProt P35968); assay: biochemical; set-up: ExpresS Diversity kinase profile (Eurofins Cerep P10), per cent inhibition; details: read-out: Inhibition of reference binding (Table 4)
MARK1 = MARK1 (Homo sapiens, UniProt Q9P0L2); assay: biochemical; set-up: ExpresS Diversity kinase profile (Eurofins Cerep P10), per cent inhibition; details: read-out: Inhibition of reference binding (Table 4)
MARK1, sequence (Q9P0L2 whole entry): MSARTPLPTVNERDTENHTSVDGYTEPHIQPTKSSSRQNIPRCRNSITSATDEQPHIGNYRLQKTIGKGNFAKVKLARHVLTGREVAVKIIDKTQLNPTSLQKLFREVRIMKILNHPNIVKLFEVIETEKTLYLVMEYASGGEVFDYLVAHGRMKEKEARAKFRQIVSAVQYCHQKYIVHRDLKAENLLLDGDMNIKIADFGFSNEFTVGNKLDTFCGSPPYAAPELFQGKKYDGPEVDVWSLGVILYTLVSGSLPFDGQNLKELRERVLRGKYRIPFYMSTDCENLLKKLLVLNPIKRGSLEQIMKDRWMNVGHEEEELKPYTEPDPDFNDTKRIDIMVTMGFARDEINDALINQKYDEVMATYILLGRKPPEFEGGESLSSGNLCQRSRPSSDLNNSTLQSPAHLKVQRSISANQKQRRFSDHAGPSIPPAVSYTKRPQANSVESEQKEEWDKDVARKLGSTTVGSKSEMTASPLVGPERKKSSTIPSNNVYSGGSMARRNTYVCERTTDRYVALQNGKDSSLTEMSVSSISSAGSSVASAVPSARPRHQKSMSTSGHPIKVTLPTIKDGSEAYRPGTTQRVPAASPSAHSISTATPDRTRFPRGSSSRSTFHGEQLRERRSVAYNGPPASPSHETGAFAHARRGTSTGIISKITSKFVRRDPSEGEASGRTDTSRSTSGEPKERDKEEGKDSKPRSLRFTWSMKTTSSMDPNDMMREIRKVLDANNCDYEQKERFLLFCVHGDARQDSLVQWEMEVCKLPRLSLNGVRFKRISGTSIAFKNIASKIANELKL

MNK2 = molecular target: T2, MNK2 (Homo sapiens, UniProt Q9HBH9); assay: biochemical; set-up: ExpresS Diversity kinase profile (Eurofins Cerep P10), per cent inhibition; details: read-out: Inhibition of reference binding (Table 4)
T2 construct: gene MKNK2
T2 sequence (Q9HBH9 whole entry): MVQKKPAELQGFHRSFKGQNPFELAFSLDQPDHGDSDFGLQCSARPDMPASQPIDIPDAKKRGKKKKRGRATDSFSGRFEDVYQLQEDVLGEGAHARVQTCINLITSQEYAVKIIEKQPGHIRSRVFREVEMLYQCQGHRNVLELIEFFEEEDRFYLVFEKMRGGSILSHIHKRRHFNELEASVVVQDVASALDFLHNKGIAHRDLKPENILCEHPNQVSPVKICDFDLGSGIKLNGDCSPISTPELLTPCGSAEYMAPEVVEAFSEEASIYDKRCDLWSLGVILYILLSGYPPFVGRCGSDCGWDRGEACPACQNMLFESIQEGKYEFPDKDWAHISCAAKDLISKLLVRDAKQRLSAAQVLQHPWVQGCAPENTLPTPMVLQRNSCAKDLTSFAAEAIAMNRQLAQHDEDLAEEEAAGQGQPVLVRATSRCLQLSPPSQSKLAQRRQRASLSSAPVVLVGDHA

PLK1 = PLK1 (Homo sapiens, UniProt P53350); assay: biochemical; set-up: ExpresS Diversity kinase profile (Eurofins Cerep P10), per cent inhibition; details: read-out: Inhibition of reference binding (Table 4)
PLK1, sequence (P53350 whole entry): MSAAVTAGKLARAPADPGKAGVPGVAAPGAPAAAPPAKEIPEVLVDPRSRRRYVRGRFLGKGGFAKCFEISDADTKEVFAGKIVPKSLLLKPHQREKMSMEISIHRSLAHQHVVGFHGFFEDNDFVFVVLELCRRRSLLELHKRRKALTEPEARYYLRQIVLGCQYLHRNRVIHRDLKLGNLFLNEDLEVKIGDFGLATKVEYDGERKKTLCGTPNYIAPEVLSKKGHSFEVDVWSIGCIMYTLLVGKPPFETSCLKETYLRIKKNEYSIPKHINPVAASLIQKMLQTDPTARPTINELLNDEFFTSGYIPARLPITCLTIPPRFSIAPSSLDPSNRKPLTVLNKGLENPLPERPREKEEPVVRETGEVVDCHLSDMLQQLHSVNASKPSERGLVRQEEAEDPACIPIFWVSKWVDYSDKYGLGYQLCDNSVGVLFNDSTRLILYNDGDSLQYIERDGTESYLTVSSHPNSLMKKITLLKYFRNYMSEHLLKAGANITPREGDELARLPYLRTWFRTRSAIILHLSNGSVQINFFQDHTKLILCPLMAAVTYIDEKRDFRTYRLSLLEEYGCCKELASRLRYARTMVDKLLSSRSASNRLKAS

SGK1 = SGK1 (Homo sapiens, UniProt O00141); assay: biochemical; set-up: ExpresS Diversity kinase profile (Eurofins Cerep P10), per cent inhibition; details: read-out: Inhibition of reference binding (Table 4)
TAOK2 = TAOK2 (Homo sapiens, UniProt Q9UL54); assay: biochemical; set-up: ExpresS Diversity kinase profile (Eurofins Cerep P10), per cent inhibition; details: read-out: Inhibition of reference binding (Table 4)
TAOK2, sequence (Q9UL54 whole entry): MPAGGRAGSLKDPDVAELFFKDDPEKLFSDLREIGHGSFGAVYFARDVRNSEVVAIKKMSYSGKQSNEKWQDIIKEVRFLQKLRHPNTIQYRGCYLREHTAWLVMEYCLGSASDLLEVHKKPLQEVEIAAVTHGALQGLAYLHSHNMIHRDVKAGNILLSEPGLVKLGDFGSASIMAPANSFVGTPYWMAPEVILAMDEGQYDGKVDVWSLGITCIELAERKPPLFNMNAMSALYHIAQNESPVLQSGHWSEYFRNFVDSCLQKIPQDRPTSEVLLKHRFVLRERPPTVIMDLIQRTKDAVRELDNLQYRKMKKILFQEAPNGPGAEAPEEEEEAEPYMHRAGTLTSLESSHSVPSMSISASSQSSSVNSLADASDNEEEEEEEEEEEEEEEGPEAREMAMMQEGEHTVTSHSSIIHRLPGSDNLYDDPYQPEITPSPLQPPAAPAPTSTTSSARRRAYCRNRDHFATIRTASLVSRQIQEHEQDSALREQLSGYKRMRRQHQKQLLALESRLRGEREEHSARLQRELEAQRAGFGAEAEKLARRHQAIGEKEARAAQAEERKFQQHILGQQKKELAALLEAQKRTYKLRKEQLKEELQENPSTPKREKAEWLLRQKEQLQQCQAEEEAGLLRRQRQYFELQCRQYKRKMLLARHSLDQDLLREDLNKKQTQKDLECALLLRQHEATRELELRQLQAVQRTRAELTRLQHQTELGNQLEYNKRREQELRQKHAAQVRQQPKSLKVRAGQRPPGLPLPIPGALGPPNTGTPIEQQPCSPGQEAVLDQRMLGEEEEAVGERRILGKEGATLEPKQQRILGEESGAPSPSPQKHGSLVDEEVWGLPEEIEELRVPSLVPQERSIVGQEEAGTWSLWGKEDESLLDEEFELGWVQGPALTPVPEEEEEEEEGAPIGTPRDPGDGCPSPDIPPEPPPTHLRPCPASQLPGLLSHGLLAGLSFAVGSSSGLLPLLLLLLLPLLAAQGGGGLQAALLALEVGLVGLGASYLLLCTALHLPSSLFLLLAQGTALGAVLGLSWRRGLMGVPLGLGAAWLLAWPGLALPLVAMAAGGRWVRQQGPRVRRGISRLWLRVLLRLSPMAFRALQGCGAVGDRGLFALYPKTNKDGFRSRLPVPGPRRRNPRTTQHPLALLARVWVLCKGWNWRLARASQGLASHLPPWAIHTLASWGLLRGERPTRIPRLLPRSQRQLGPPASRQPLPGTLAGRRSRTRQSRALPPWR

PRLR-JAK1 = PRLR-JAK1 (Homo sapiens, UniProt P16471); assay: cell-based; set-up: PathHunter eXpress functional assay (DiscoverX tkMAX), inhibition of reference ligand response; details: read-out: % Inhibition of reference binding (Table 3)
TrkC-P75 = molecular target: T3, TrkC-P75 (Homo sapiens, UniProt Q16288); assay: cell-based; set-up: PathHunter eXpress functional assay (DiscoverX tkMAX), inhibition of reference ligand response; details: read-out: % Inhibition of reference binding (Table 3)
T3 construct: gene NTRK3
T3 sequence (Q16288 whole entry): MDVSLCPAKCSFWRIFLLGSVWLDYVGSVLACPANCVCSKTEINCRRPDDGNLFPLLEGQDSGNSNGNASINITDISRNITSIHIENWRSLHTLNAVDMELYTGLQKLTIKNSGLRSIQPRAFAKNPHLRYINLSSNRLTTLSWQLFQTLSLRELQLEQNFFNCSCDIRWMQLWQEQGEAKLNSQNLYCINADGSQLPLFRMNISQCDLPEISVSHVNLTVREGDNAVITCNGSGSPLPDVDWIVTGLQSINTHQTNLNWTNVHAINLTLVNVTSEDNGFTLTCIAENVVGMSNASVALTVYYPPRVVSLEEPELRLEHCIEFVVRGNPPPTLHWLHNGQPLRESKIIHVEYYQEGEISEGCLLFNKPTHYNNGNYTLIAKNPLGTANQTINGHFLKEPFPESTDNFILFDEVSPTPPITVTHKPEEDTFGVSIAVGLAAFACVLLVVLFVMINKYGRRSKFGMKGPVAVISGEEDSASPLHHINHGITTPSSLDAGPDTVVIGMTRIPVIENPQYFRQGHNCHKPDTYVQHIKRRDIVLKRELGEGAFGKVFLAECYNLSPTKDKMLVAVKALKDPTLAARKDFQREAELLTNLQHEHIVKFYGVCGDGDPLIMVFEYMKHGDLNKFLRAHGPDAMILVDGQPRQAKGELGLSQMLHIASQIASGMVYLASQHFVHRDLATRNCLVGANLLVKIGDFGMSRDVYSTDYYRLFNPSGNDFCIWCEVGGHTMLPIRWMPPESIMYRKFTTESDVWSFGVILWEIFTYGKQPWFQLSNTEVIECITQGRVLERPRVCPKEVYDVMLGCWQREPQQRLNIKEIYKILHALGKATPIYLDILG
T3 sequence (P08138 whole entry partner): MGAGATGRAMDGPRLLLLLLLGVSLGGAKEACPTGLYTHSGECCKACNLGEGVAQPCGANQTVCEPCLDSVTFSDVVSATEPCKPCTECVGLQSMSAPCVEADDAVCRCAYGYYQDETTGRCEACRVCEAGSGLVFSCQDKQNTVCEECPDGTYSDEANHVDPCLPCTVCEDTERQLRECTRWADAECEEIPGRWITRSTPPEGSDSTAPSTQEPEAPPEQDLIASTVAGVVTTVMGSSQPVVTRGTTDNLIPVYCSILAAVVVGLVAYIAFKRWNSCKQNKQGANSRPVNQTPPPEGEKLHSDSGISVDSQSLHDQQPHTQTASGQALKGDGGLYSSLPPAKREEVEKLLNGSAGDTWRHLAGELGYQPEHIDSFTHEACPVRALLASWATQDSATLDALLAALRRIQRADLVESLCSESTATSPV

c-Ret-GFRα2 = c-Ret-GFRα2 (Homo sapiens, UniProt P07949); assay: cell-based; set-up: PathHunter eXpress functional assay (DiscoverX tkMAX), inhibition of reference ligand response; details: read-out: % Inhibition of reference binding (Table 3)

Interleukin-1 receptor-associated kinase 4 (IRAK4), sequence (Q9NWZ3 whole entry): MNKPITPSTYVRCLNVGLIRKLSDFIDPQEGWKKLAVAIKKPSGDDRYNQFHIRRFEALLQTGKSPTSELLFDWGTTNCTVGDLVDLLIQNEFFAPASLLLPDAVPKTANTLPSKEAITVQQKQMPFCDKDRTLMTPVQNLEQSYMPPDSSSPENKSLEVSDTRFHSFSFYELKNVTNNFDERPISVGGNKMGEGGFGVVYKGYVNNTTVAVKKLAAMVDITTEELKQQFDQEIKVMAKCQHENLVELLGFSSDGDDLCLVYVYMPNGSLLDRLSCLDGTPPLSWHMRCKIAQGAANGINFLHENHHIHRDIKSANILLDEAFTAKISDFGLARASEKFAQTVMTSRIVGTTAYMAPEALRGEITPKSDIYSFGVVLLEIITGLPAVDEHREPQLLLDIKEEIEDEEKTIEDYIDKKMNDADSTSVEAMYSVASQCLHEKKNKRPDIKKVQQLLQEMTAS

Structure (SMILES): O=C(Nc1cc(Cl)ccc1O)c1cccc(S(=O)(=O)N2CCCCC2)c1 [compound 66, BDT001]
- inhibition at 10 µM [1]: 64%
- inhibition at 10 µM (CDK2): 33%
- inhibition at 10 µM (FGFR2 kinase): -2%
- inhibition at 10 µM (FGFR3 kinase): 33%
- inhibition at 10 µM (JNK1): 32%
- inhibition at 10 µM (KDR): -6%
- inhibition at 10 µM (MARK1): 13%
- inhibition at 10 µM (MNK2): -7%
- inhibition at 10 µM (PLK1): -5%
- inhibition at 10 µM (SGK1): 16%
- inhibition at 10 µM (TAOK2): 33%
- inhibition at 10 µM (PRLR-JAK1): 6.1%
- inhibition at 10 µM (TrkC-P75): 0.6%
- inhibition at 10 µM (c-Ret-GFRα2): -4.1%
